Our source for the IC50 values is US20240051985A1, “METTL3 MODULATORS” (ACCENT THERAPEUTICS, INC., priority 2020, published 2024).

One assay addresses T1, FLT3 (Homo sapiens, UniProt P36888).
T1 sequence (P36888 27-993): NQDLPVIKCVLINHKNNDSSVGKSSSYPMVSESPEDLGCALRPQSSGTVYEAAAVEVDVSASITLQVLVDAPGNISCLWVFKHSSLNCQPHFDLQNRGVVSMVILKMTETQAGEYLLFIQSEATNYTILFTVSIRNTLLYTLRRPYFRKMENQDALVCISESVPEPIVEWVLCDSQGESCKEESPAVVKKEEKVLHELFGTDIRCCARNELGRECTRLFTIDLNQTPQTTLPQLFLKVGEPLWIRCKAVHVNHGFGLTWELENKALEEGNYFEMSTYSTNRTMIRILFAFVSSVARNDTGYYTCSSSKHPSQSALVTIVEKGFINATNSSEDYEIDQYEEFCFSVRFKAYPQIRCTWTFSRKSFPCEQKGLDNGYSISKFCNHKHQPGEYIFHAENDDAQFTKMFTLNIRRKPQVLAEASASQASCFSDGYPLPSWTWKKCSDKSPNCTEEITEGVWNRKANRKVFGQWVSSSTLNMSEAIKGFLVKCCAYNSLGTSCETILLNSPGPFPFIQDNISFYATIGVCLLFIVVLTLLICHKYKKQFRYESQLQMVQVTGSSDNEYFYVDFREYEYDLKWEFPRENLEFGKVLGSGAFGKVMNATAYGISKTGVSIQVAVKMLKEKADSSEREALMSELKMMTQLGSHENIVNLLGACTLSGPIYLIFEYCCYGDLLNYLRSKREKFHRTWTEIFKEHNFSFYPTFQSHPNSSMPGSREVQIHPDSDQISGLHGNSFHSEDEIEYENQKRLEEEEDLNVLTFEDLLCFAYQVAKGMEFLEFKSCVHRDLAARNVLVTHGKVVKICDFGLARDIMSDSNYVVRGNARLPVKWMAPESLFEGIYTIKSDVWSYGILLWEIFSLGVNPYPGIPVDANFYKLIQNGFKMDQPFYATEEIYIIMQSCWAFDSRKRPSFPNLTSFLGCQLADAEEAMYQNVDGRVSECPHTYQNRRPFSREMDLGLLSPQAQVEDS
Description: FLT3 Caliper assay. In kind it is biochemical. The conditions noted are these: Table 4; read-out: FLT3 Calipher assay IC50. How it is done:
(§1) FLT3/FLT3-ITD Caliper Assays
(§2) Assays were performed in a 20 μl-volume in 384-well polypropylene microplates (Perkin Elmer Proxiplate, cat. No. 6059480) at ambient temperature. Optimized 1× assay buffer was 50 mM Hepes pH 7.5, 2 mM DTT, 0.01% Tween, 0.01% BSA, 10 mM MgCl2. For compound screening FLT3 (final concentration, f.c.=0.9 nM) or FLT3-ITD (f.c.=7 nM) was added using a Multidrop Combi (ThermoFisher Scientific, Waltham, MA) and preincubated for 10 min. Reactions were started by adding fluorescein-peptide (sequence 5-FAM-EAIYAAPFAKKK-CONH2) (f.c.=300 μM) and ATP (FLT3 f.c.=97 μM FLT3-ITD f.c.=146 μM) substrates. Reactions proceeded for 60 minutes. The reactions were stopped with LabChip ProfilerPro Separation Buffer containing EDTA (f.c.=20 mM). The plates were read on a Caliper microfluidics reader (PerkinElmer, Waltham, MA).

In another assay the target is T2, FLT3-ITD (Homo sapiens, UniProt P36888).
T2 sequence (P36888 1-993): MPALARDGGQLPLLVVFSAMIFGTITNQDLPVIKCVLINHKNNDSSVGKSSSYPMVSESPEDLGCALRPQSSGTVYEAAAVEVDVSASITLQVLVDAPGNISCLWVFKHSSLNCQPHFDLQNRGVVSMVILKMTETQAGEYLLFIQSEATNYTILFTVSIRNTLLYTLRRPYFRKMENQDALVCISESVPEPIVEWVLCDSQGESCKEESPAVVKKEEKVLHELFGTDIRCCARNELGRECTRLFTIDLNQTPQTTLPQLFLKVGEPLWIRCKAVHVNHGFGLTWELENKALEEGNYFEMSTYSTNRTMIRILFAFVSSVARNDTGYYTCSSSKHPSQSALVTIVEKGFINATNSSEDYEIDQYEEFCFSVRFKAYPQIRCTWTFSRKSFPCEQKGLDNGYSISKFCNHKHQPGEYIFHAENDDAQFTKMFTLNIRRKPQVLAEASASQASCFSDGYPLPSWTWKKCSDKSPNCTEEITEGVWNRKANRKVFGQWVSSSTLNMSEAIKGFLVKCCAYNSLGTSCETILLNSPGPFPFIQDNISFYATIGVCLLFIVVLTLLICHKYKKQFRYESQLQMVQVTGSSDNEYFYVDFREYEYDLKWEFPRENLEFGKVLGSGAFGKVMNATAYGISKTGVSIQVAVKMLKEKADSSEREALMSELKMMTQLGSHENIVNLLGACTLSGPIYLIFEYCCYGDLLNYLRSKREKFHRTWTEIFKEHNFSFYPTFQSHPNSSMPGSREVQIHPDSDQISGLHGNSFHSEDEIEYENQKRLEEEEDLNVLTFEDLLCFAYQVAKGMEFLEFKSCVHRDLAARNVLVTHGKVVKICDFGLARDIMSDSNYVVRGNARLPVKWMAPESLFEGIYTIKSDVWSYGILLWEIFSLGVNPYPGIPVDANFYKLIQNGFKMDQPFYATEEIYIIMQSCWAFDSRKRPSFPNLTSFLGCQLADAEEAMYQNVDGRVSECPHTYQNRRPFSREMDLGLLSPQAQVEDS
Kind of assay: FLT3-ITD Caliper assay. In kind it is biochemical. The conditions noted are these: Table 4; read-out: FLT3-ITD Calipher assay IC50. How it is done: as §1, §2

In another assay the target is METTL3/METTL14 (Homo sapiens, UniProt Q86U44). Description: METTL3-14 standard enzyme assay (3H-SAM flashplate). As to conditions: Table 4; METTL3 biochemical assay. In a few lines:
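METTL3/METTL14 (2.5 nM) preincubated 5 min, then reacted with 3′-biotinylated RNA UCUGGACUAAA (100 nM) and 3H-SAM (100 nM) for 30 min at ambient temperature in 20 mM HEPES pH 7.5, 50 mM KCl, 250 μM MgCl2, 1 mM DTT. Quenched with 15 μM cold SAM; product captured on streptavidin flashplates, scintillation counted.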

The next assay addresses PRMT5-MEP50 (Homo sapiens, UniProt O14744). Kind of assay: PRMT5 assay (3H-SAM flashplate). The conditions noted are these: Table 4; PRMT5 biochemical assay. The procedure, abridged:
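PRMT5-MEP50 at 2.5 nM, preincubated 5 min with compound in 20 mM Tris-HCl pH 8.0, 1 mM DTT, 0.01% Tween at ambient temperature. Biotinylated acetylated histone H4 peptide (100 nM) and 3H-SAM (250 nM) react 60 min, quenched with 15 μM cold SAM; methylation captured on streptavidin flashplates and scintillation-counted.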

Sequence of PRMT5-MEP50 (O14744 whole entry): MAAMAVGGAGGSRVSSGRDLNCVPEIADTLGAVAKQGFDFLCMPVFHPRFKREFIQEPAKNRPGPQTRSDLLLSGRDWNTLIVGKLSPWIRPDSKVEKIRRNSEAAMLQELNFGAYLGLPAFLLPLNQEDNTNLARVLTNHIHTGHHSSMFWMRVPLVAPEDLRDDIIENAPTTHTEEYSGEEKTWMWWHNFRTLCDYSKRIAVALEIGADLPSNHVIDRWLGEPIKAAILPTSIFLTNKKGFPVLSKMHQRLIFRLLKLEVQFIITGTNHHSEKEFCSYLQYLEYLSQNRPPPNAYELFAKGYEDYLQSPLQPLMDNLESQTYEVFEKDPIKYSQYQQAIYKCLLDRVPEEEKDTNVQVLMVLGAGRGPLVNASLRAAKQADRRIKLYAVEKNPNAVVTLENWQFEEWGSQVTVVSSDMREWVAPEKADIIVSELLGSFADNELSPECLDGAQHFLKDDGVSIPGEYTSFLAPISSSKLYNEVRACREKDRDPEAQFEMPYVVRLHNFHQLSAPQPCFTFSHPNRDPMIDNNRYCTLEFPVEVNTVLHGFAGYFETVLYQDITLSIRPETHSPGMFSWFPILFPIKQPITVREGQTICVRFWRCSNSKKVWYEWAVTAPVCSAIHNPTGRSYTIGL
Sequence of PRMT5-MEP50 (Q9BQA1 whole entry partner): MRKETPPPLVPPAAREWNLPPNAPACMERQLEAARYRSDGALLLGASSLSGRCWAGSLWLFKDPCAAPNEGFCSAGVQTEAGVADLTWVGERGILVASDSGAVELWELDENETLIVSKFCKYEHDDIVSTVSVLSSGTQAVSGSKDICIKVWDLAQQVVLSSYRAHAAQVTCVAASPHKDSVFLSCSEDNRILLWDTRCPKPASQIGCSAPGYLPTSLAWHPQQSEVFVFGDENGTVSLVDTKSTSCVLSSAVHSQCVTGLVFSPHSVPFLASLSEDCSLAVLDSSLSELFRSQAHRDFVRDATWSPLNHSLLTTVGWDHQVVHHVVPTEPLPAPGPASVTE
Sequence of METTL3/METTL14 (Q86U44 whole entry, species assumed): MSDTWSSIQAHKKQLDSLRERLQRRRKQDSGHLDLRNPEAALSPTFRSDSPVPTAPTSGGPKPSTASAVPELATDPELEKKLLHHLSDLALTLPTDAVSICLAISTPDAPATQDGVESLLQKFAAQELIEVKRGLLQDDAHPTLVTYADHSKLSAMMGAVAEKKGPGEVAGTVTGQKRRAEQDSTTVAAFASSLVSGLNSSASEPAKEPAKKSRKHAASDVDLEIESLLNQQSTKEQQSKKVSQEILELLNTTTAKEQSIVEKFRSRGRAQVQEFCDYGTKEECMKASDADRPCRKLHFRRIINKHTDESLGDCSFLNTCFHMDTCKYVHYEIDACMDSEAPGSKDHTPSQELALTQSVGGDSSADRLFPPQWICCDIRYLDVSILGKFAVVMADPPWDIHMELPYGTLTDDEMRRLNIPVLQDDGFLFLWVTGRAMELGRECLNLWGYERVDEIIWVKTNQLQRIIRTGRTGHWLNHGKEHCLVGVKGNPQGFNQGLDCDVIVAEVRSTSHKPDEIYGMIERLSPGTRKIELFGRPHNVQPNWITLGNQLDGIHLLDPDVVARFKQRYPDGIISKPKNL
Sequence of METTL3/METTL14 (Q9HCE5 whole entry partner, species assumed): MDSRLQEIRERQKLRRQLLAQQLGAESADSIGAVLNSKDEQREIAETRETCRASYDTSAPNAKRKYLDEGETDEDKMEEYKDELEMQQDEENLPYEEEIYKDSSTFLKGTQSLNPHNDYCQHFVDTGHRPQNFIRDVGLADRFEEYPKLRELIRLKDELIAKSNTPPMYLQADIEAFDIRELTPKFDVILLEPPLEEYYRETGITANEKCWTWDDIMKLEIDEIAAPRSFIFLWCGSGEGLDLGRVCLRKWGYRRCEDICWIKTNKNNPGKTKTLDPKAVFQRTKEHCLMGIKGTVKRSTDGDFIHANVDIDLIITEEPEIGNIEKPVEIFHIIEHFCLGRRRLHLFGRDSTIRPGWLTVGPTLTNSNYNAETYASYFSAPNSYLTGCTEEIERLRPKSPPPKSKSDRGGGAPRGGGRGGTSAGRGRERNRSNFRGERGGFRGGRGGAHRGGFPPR

On to `CN(C)CCCNC(=O)[C@H]1O[C@@H](n2cc(-c3ccn(C)n3)c3c(N)ncnc32)[C@H](O)[C@@H]1O` [Compound I-183], for which the IC50 at FLT3 was at least 1000 nM; on FLT3-ITD, at least 1000 nM; at METTL3/METTL14, at least 1000 nM; against PRMT5-MEP50, 10 to 100 nM.

Consider `Cn1ccc(-c2cn([C@@H]3O[C@H](C(=O)Nc4cc[nH]n4)[C@@H](O)[C@H]3O)c3ncnc(N)c23)n1` [Compound I-170], for which the IC50 at FLT3 was 100 to 1000 nM; on FLT3-ITD, 100 to 1000 nM; on METTL3/METTL14, at least 1000 nM; at PRMT5-MEP50, at least 1000 nM.

Turning to `Cn1ccc(-c2cn([C@@H]3O[C@H](C(=O)NCC4(O)CCNCC4)[C@@H](O)[C@H]3O)c3ncnc(N)c23)n1` [Compound I-198], the IC50 is at least 1000 nM on FLT3, at least 1000 nM on FLT3-ITD, 100 to 1000 nM against METTL3/METTL14 and 10 to 100 nM against PRMT5-MEP50.

With `COCCNc1ccnc(NC(=O)[C@H]2O[C@@H](n3cc(-c4ccn(C)n4)c4c(N)ncnc43)[C@H](O)[C@@H]2O)c1` [Compound I-165], the 50% inhibitory concentration (IC50) at FLT3 was at least 1000 nM; on FLT3-ITD, at least 1000 nM; at METTL3/METTL14, 100 to 1000 nM; against PRMT5-MEP50 it was 100 to 1000 nM.

As to `Cn1ccc(-c2cn([C@@H]3O[C@H](C(=O)N[C@H]4CCC(=O)NC4)[C@@H](O)[C@H]3O)c3ncnc(N)c23)n1` [Compound I-179], the IC50 at FLT3, on FLT3-ITD, against METTL3/METTL14 and against PRMT5-MEP50 was at least 1000 nM throughout.

`C[C@@H](NC(=O)[C@H]1O[C@@H](n2cc(-c3ccn(C)n3)c3c(N)ncnc32)[C@H](O)[C@@H]1O)C1CCNCC1` [Compound I-196]: the IC50 was at least 1000 nM on FLT3, at least 1000 nM at FLT3-ITD, at least 1000 nM at METTL3/METTL14 and 100 to 1000 nM against PRMT5-MEP50.

Take `Cn1ccc(-c2cn([C@@H]3O[C@H](C(=O)Nc4cc(NCC(F)F)ccn4)[C@@H](O)[C@H]3O)c3ncnc(N)c23)n1` [Compound I-169]: the IC50 is at least 1000 nM at FLT3, at least 1000 nM at FLT3-ITD, 100 to 1000 nM against METTL3/METTL14 and 100 to 1000 nM on PRMT5-MEP50.

`Cn1ccc(-c2cn([C@@H]3O[C@H](C(=O)NCCc4ccccc4)[C@@H](O)[C@H]3O)c3ncnc(N)c23)n1` [Compound I-192]: the concentration for half-maximal inhibition (IC50) at FLT3 is at least 1000 nM; on FLT3-ITD it was at least 1000 nM; on METTL3/METTL14 it was 100 to 1000 nM; against PRMT5-MEP50, 100 to 1000 nM.

As to `Cn1ccc(-c2cn([C@@H]3O[C@H](C(=O)Nc4cc(NC5CCC5)ncn4)[C@@H](O)[C@H]3O)c3ncnc(N)c23)n1` [Compound I-164], the IC50 on FLT3 is at least 1000 nM; on FLT3-ITD, at least 1000 nM; against METTL3/METTL14, at least 1000 nM; at PRMT5-MEP50, 100 to 1000 nM.

With `Cn1ccc(-c2cn([C@@H]3O[C@H](C(=O)Nc4cccnc4)[C@@H](O)[C@H]3O)c3ncnc(N)c23)n1` [Compound I-156], the IC50 was at least 1000 nM at FLT3, at least 1000 nM at FLT3-ITD, 100 to 1000 nM on METTL3/METTL14 and 10 to 100 nM on PRMT5-MEP50.

With `Nc1ncnc2c1ccn2[C@@H]1O[C@H](C(=O)Nc2ccc3ccc(N4CCC4)nc3c2)[C@@H](O)[C@@H]1F` [Compound I-34, (2S,3R,4S,5R)-5-{4-amino-7H-pyrrolo[2,3-d]pyrimidin-7-yl}-N-[2-(azetidin-1-yl)quinolin-7-yl]-4-fluoro-3-hydroxyoxolane-2-carboxamide], the IC50 is at least 1000 nM on FLT3, at least 1000 nM on FLT3-ITD, 10 to 100 nM against METTL3/METTL14 and at least 1000 nM against PRMT5-MEP50.

As to `Cn1ccc(-c2cn([C@@H]3O[C@H](C(=O)Nc4cc(F)cc(F)c4)[C@@H](O)[C@H]3O)c3ncnc(N)c23)n1` [Compound I-158], the IC50 at FLT3 is at least 1000 nM; on FLT3-ITD it was at least 1000 nM; at METTL3/METTL14 it was at least 1000 nM; against PRMT5-MEP50 it was 100 to 1000 nM.

Regarding `Cn1ccc(-c2cn([C@@H]3O[C@H](C(=O)Nc4cc(NC5CCC5)ccn4)[C@@H](O)[C@H]3O)c3ncnc(N)c23)n1` [Compound I-162], the IC50 on FLT3 is at least 1000 nM; on FLT3-ITD, at least 1000 nM; at METTL3/METTL14, 100 to 1000 nM; at PRMT5-MEP50, 10 to 100 nM.

Turning to `CN1CCC(NC(=O)[C@H]2O[C@@H](n3cc(-c4ccn(C)n4)c4c(N)ncnc43)[C@@H](F)[C@@H]2O)CC1` [Compound I-60], the IC50 at FLT3 was at least 1000 nM; at FLT3-ITD, at least 1000 nM; against METTL3/METTL14, 100 to 1000 nM; on PRMT5-MEP50 it was at least 1000 nM.

In the case of `Cn1ccc(-c2cn([C@@H]3O[C@H](C(=O)NCc4cc(F)cc(F)c4)[C@@H](O)[C@H]3O)c3ncnc(N)c23)n1` [Compound I-191], the IC50 is at least 1000 nM at FLT3, at least 1000 nM on FLT3-ITD, 100 to 1000 nM against METTL3/METTL14 and 100 to 1000 nM against PRMT5-MEP50.

Turning to `CC(=O)N1CCC(CNC(=O)[C@H]2O[C@@H](n3cc(-c4ccn(C)n4)c4c(N)ncnc43)[C@H](O)[C@@H]2O)CC1` [Compound I-227], the IC50 on FLT3, at FLT3-ITD, against METTL3/METTL14 and on PRMT5-MEP50 was at least 1000 nM in each case.

Regarding `Cn1ccc(-c2cn([C@@H]3O[C@H](C(=O)Nc4cc(N5CCC5)ccn4)[C@@H](O)[C@H]3O)c3ncnc(N)c23)n1` [Compound I-168], the 50% inhibitory concentration (IC50) on FLT3 was at least 1000 nM; at FLT3-ITD, at least 1000 nM; against METTL3/METTL14 it was 100 to 1000 nM; at PRMT5-MEP50, 10 to 100 nM.

In the case of `Cn1ccc(-c2cn([C@@H]3O[C@H](C(=O)NCCc4cccnc4)[C@@H](O)[C@H]3O)c3ncnc(N)c23)n1` [Compound I-160], the IC50 was at least 1000 nM at FLT3, at least 1000 nM at FLT3-ITD, at least 1000 nM at METTL3/METTL14 and 10 to 100 nM on PRMT5-MEP50.

For orientation: IC50 means the concentration needed to halve the response being measured.
